Measured values reported in ChEMBL document CHEMBL4483862, “Open-source discovery of chemical leads for next-generation chemoprotective antimalarials” (2018).

System: Plasmodium berghei
Test: Luciferase/luciferin-expressing antifolate-resistant parasites were used to infect a culture of HepG2 cells that were pre-incubated with compounds. Infected hepatocytes emit light due to the luciferase reaction. Assay results are presented as the percent inhibition of light emission compared to control. […]
Format: functional
Settings: sporozoite; for IC50: read-out: LUCIFERASE INFECTION ASSAY - IC50; for IC90: read-out: LUCIFERASE INFECTION ASSAY - IC90

Row | SMILES | IC50 [µM] | IC90 [µM]
1 | CN(c1nc2ccccc2nc1O)C1CCCCC1 | > 10 | > 10
2 | Nc1cc(Cl)ccc1Oc1ccc2ccccc2c1 | > 10 | > 10
3 | CC(C)Cc1ccc(C(C)NC(=O)c2ccc(O)nc2)cc1 (stereo not given) | > 10 | > 10
4 | CN(CC(=O)Nc1ccc(F)c(F)c1F)c1cnccn1 | > 10 | > 10
5 | c1ccc2c(C3=NN=C(NC4CCCCC4)SC3)c[nH]c2c1 | > 10 | > 10
6 | Nc1ccc(SC(F)(F)F)cc1 | > 10 | > 10
7 | Cn1cccc1C(=O)OCC(=O)NCc1cccs1 | > 10 | > 10
8 | CN(C)C(=O)COC(=O)c1cccc(CN2C(=O)c3ccccc3C2=O)c1 | > 10 | > 10
9 | O=c1c2ccccc2cnn1-c1nc2ccccc2s1 | 0.212 | 1.01
10 | O=C(Nc1ccccc1)c1ccc(CN2CCN(CCOc3ccccc3)CC2)cc1 | 0.646 | 1.96
11 | COc1ccc(-c2csc3ncnc(NC4CCN(CC(N)=O)CC4)c23)cc1 | 5.11 | 8.68
12 | Cc1ccc2nc(CN3CCCCC3c3nc4ccccc4s3)cn2c1 (stereo not given) | > 10 | > 10
13 | O=S(=O)(NCCNc1cnccn1)c1ccc(OC(F)(F)F)cc1 | > 10 | > 10
14 | O=C(Nc1ncc(Cc2cc(F)cc(F)c2)s1)c1ccc2nc[nH]c2c1 | 2.9 | 6.19
15 | COc1ccc(Nc2nc(NCCO)c3ccccc3n2)cc1 | > 10 | > 10
16 | Cc1cc(NC(=O)CCNC(C)c2ccc(CC(C)C)cc2)no1 (stereo not given) | > 10 | > 10
17 | c1ccc2c(Nc3nc(C4CC4)cs3)ncnc2c1 | > 10 | > 10
18 | Cc1cc(C(=O)OCC(=O)NC2CCCCCCC2)c(C)n1-c1ccccc1 | > 10 | > 10
19 | N#CCc1c(C#N)c(N)nc(Nc2ccc(F)cc2F)c1C#N | 3.64 | 6.78
20 | CC(=O)N(c1ccc(Cl)c(Cl)c1)c1nc(CN2CCCCCC2)cs1 | 4.55 | 9.28
21 | Cc1cnc(Nc2ncnc3ccccc23)s1 | > 10 | > 10
22 | C#Cc1cccc(NC(=O)c2[nH]c(C)c(C(=O)OCC)c2C)c1 | > 10 | > 10
23 | Cc1cc2oc3c(c2cc1NS(=O)(=O)c1cccs1)CC(C)CC3 (stereo not given) | > 10 | > 10

Row | SMILES | IC50 [µM] | IC90 [µM]
24 | COc1cc(OC)c2[nH]c(C(=O)NCCc3ccc(-c4csc(C)n4)s3)cc2c1 | > 10 | > 10
25 | O=C(Nc1ccc(-c2csc(NC(=O)c3c[nH]nc3-c3ccccc3)n2)cc1)c1ccccc1 | 2.42 | 7.36
26 | Cc1ccc(Nc2nc(NCCO)c3ccccc3n2)cc1 | 4.79 | > 10
27 | Nc1nccnc1C(=O)Nc1nc2ccc(Oc3ccccc3)cc2s1 | > 10 | > 10
28 | Clc1ccc2c(Nc3ccc(N4CCOCC4)cc3)ccnc2c1 | > 10 | > 10
29 | O=C(Cc1ccccc1)OC1(C(F)(F)F)C(=O)Nc2c1ccc1ccccc21 (stereo not given) | > 10 | > 10
30 | COc1cc(NC(=O)CN2CC=C(c3c[nH]c4ccccc34)CC2)cc(OC)c1OC | > 10 | > 10
31 | CN(C)Cc1ccc(CNc2ncnc3scc(-c4ccccc4)c23)cc1 | 0.704 | 2.66
32 | O=C(Nc1nc(CN2CCOCC2)cs1)c1ccccc1Nc1ccccc1 | > 10 | > 10
33 | OCc1cccc(Nc2nc(-c3ccsc3)nc3ccccc23)c1 | > 10 | > 10
34 | CCCn1c(NC(=O)C2CC(=O)N(Cc3ccc(C)cc3)C2)nc2ccccc21 (stereo not given) | > 10 | > 10
35 | O=C(Nc1nc(-c2c[nH]c3ccccc23)cs1)c1coc(Br)c1 | > 10 | > 10
36 | CNC(=O)c1cccc(NC(=O)c2cc(Cl)c[nH]2)c1 | > 10 | > 10
37 | CNc1ccccc1C(C)(C)c1cc(-c2ccc(Cl)cc2)no1 | 4.84 | > 10
38 | CCn1c(=O)c(=O)[nH]c2cc(C(=O)Nc3cccc(C#Cc4cccs4)c3)ccc21 | > 10 | > 10
39 | Cc1cc2occ(CC(=O)Nc3ccc(N4CCN(C)CC4)nc3)c2cc1C(C)C | 9.57 | > 10
40 | O=C(Nc1ccnn1Cc1cccc(Cl)c1)c1csc(-c2ccsc2)n1 | > 10 | > 10
41 | CCN(CC)CCn1c(NC(=O)c2cc(C(C)=O)c[nH]2)nc2ccccc21 | 1.82 | > 10
42 | COc1cc2nc(-c3ccccc3)nc(N3CCN(c4ccncc4)CC3)c2cc1OC | > 10 | > 10
43 | CN(CC(=O)Nc1nc2ccc(Cl)cc2s1)S(=O)(=O)c1ccc(C#N)cc1 | 5.71 | 8.36
44 | O=C(Cc1cc(Cl)c2c(c1)OCCCO2)NCc1ccco1 | 6.35 | > 10
45 | COc1cc(Nc2ncnc3ccsc23)cc(OC)c1 | 0.968 | 2.61
46 | CC(NC(=O)COC(=O)COc1ccc2c(c1)CCC(=O)N2)c1ccco1 (stereo not given) | > 10 | > 10

Row | SMILES | IC50 [µM] | IC90 [µM]
47 | CC1N(C)c2ccc(/C=C/c3cc[n+](C)cc3)cc2C1(C)C (stereo not given) | 3.32 | 4.04
48 | CC(NC(=O)NC(=O)c1ccccc1)C1CC2CCC1C2 (stereo not given) | > 10 | > 10
49 | CCOc1ccc(CN(C)c2cc(-c3ccccc3)c3ccccc3n2)cc1OC | > 10 | > 10
50 | COc1ccc(NC(=O)c2cc(S(N)(=O)=O)ccc2Br)cc1Cc1ccccc1 | > 10 | > 10
51 | Cc1cc(C(=O)COc2ccc(-c3nnco3)cc2)c(C)n1-c1ccc(F)cc1 | 8.4 | > 10
52 | CCc1cccc2c(C3=CCN(c4ncnc5c4cnn5C)CC3)c[nH]c12 | > 10 | > 10
53 | O=C(Nc1cccc(C#Cc2ccccc2)c1)c1ccoc1 | > 10 | > 10
54 | COc1ccc(-n2cc(-c3ccccc3)c3c(NCc4cccnc4)ncnc32)cc1 | > 10 | > 10
55 | Cc1cc(-c2cc(C(=O)NCc3ccc(Cn4cncn4)cc3)c3cnn(C(C)C)c3n2)c(C)s1 | > 10 | > 10
56 | CS(=O)(=O)Nc1ccc(-c2csc(NC(=O)c3ccc4ncsc4c3)n2)cc1 | > 10 | > 10
57 | O=C(Nc1ccc2c(c1)OC(F)(F)O2)c1ccc(F)c(F)c1 | 9.62 | > 10
58 | COc1ccc(C(C)(C)C)cc1NC(=O)c1ccc(NC(=O)Nc2ccccc2)s1 | 5.57 | 5.68
59 | COc1ccc(NC(=O)C(C(=O)Nc2ccc(OC)cc2)C23CC4CC(CC(C4)C2)C3)cc1 | 7.12 | > 10
60 | O=C(CSc1nnc(-c2ccncc2)[nH]1)NC1CCCc2ccccc21 (stereo not given) | > 10 | > 10
61 | COCCN(CCOC)C(=O)CSc1nnc(/C=C/c2ccccc2)[nH]1 | > 10 | > 10
62 | O=C(Cc1csc(NC(=O)c2ccccc2)n1)Nc1ncccc1O | > 10 | > 10
63 | COc1cc2nc(NC(=O)c3[nH]c4c(c3C)C(=O)CCC4)sc2cc1OC | > 10 | > 10
64 | O=C(COc1nnc2ccccn12)Nc1cccc2ccccc12 | > 10 | > 10
65 | O=C(Nc1ncc(Cc2cccc(Cl)c2Cl)s1)c1ccncc1 | 3.27 | 7.55
66 | NS(=O)(=O)c1cccc(NC(=O)CCc2ccccc2Cl)c1 | > 10 | > 10
67 | CC1CC1C(=O)Nc1cccc(S(=O)(=O)N(C)c2ccccc2)c1 (stereo not given) | > 10 | > 10
68 | Cc1cc(C(=O)Nc2nc3ccccc3[nH]2)c(C)s1 | > 10 | > 10
69 | O=C(Nc1cc(S(=O)(=O)N2CCCCCC2)ccc1OCC(F)(F)F)c1cccc2c[nH]nc12 | > 10 | > 10

Row | SMILES | IC50 [µM] | IC90 [µM]
70 | Cc1ccc(C2=NNC(=NC3CC3)SC2)cc1 | 1.46 | > 10
71 | Cc1nc(Nc2ccc(Cl)cc2)sc1C(=O)Nc1ccccc1 | > 10 | > 10
72 | O=C(OCC1CCCCC1)c1[nH]nc2ccccc12 | > 10 | > 10
73 | Cc1ccc(Cn2c3nc(C#N)c(C#N)nc3c3c(=O)nc(C)[nH]c32)cc1 | > 10 | > 10
74 | Cc1ccc(-c2nc(SCCC(N)=O)[nH]c2-c2ccc(C)cc2)cc1 | > 10 | > 10
75 | Cc1nn(-c2ccccc2)c2sc(C(=O)N3c4ccccc4CC3C)cc12 (stereo not given) | > 10 | > 10
76 | O=C(CSc1nnnn1CC1CCCO1)NCc1ccc2c(c1)OCO2 (stereo not given) | > 10 | > 10
77 | c1ccc(C(Nc2ncnc3ccsc23)c2cccs2)cc1 (stereo not given) | 1.14 | 2.58
78 | CCn1c(=O)c(=O)[nH]c2cc(C(=O)Nc3ccc(Oc4ccccc4)cc3)ccc21 | > 10 | > 10
79 | Fc1ccc(-c2c[n+](-c3ccccc3)c3n2CCCS3)cc1 | > 10 | > 10
80 | CCOC(=O)c1c(C)[nH]c(C(=O)Nc2ccnn2C2CCCC2)c1C | 6.86 | 6.13
81 | Cc1[nH]c2ccccc2c1C(c1ccccc1)N1CCN(C)CC1 (stereo not given) | > 10 | > 10
82 | Nc1nccnc1C(=O)Nc1nnc(-c2cccc(Br)c2)[nH]1 | > 10 | > 10
83 | COc1cccc(-c2csc(-c3nnc4n3-c3ccccc3SC4)n2)c1 | 2.69 | 3.9
84 | CCN1CCC(N(C)c2ncnc3sc(-c4ccccc4)cc23)CC1 | > 10 | > 10
85 | CCOc1ccc(Oc2ccc(S(=O)(=O)NC(C)c3ccncc3)cc2)cc1 (stereo not given) | 0.559 | 4.85
86 | CSc1nnc(Sc2nc(-c3cccnc3)nc3ccccc23)s1 | > 10 | > 10
87 | O=C(Nc1ccnn1-c1nc2ccccc2[nH]1)C(c1ccccc1)c1ccccc1 | 5.95 | 9.69
88 | c1nc(NCC23CC4CC(CC(C4)C2)C3)c2sccc2n1 | > 10 | > 10
89 | O=C(Nc1nc(CN2CCCCC2)cs1)c1ccc2[nH]c3c(c2c1)CCCC3 | > 10 | > 10
90 | CC(C)c1ccc(C(NCC(=O)NC(=O)NC2CCCC2)c2cccs2)cc1 (stereo not given) | > 10 | > 10
